Experimental data from publication PMC7156724, “Potent BRD4 inhibitor suppresses cancer cell-macrophage interaction” (Nature Communications, 2020).
“And” between values parts separate entries of the source, which are not always exact repeats. Identical values can stand only once.

How the values were obtained:
ES-2 cells = assay: MTT cell growth assay, ES-2; assay type: cell-based, human; conditions: 5 days
Protocol: (§1) Fig. 2 NHWD-870 inhibited BRD4 phosphorylation and c-MYC expression, and suppressed cell growth. a Representative western blot analysis of p-BRD4 (s484/488), BRD4, c-MYC, and GAPDH after treatment of MDA-MB231, SUM159, A2780 ES-2, and H526 cells with JQ-1 or NHWD-870 at the indicated concentrations for 24 h. GAPDH served as the loading control. Selected from three independent experiments. b MTT assays of H526, A2780, ES-2, and MDA-MB231 cells treated with JQ-1 or NHWD-870 at the indicated concentrations for 5 days. Data are presented as mean ± SEM from three independent experiments. c, d Clonogenic assays of H526, A2780, ES-2 and MDA-MB231 cells treated with 250 nM JQ-1 or NHWD-870 for 5 days. Shown are representative images (c) and quantification of colonies (d). […] Shown are representative images (e) and quantification of relative colony sizes (f). Scale bar, 50 μm. Data are presented as mean ± SEM from five independent experiments. p values were calculated using two-tailed, unpaired t tests in this figure. **p < 0.01; ***p < 0.001. Source data are provided as a Source Data file.
37℃, 5% CO2. […]

TAMs = assay: 3D Matrigel culture of TAMs, direct treatment; assay type: cell-based, mouse
Protocol: CD45^+CD11b^+F4/80^+ TAMs were isolated from peritoneal metastasis of A2780 tumor-bearing mice and cultured in RPMI-1640 supplemented with 10% FBS, 1% penicillin/streptomycin, and 0–50 ng/ml CSF1 (R&D Systems) as indicated according to standard protocols. In the cancer cell-macrophage co-culture experiments, CSF1 was not added. In the transwell (Corning, pore size, 0.4 μm) co-culture experiments, tumor cells were placed into the upper chamber, and TAMs were seeded into the lower chamber.
Single clone spheroids were generated by culturing A2780, ES-2, H526 and MDA-MB231 cells for 16 h as a hanging drop over a humidified plate in a CO2 incubator in their corresponding complete media. […] The relative spheroid sizes were measured with ImageJ version 1.52s using the 15 representative spheroids. […]
with anti-CD45, CD11b and CD206 followed by FACS analysis. Shown are representative FACS plots (c) and quantification of the percentage of CD11b+CD206+ cells (d). Data are presented as mean ± SEM from 5 different mice. p values were calculated using two-tailed, unpaired t tests. **, p<0.01; ***, p<0.001. […] Quantification of spheroid volumes (f). Data are presented as mean ± SEM from 15 independent experiments. p values were calculated using two-tailed, unpaired t tests. **, p<0.01. […]

MDA-MB231 cells = assay: Clonogenic (colony formation) assay, MDA-MB231; assay type: cell-based, human; conditions: MDA-MB231, 250 nM, 5 days
Protocol: as §1, with “file. […]” for “file.”
5. Colony formation assay. Cells were seeded in 6-well plates at 3,000 cells/well […]
every week. […] Colony numbers were calculated with imageJ version

Cc1nnn(C)c1-c1cnc2c3c4cnn(C)c4ccc3n([C@H](c3ccccc3)C3CCOCC3)c2c1 [NHWD-870]
MTT assay, relative cell number (ES-2 cells; ES-2, 0.1 nM): 0.993 and 0.983 and 0.961 | MTT assay, relative cell number (ES-2 cells; ES-2, 1 nM): 0.911 and 0.921 and 0.934 | MTT assay, relative cell number (ES-2 cells; ES-2, 10 nM): 0.355 and 0.301 and 0.382 | MTT assay, relative cell number (ES-2 cells; ES-2, 500 nM): 0 | MTT assay, relative cell number (ES-2 cells; ES-2, 1000 nM): 0 | MTT assay, relative cell number (ES-2 cells; ES-2, 5000 nM): 0 | MTT assay, relative cell number (ES-2 cells; ES-2, 10000 nM): 0 | fold inhibition of colony size of macrophages (TAMs): < 2 fold | decrease of the ability of TAMs to form colonies in a 3D culture system (TAMs; 100 nM): < 50% | Clone Number (clonogenic assay) (MDA-MB231 cells): 571 and 603 and 635 and 542 and 519
